Reference: patent publication US8236772B2, “Methods of modulating angiogenesis and screening compounds for activity in modulating angiogenesis” (The Board of Trustees of the Leland Stanford Junior …, priority 2005, dated 2012)
Entries after “also recorded” stand apart in the source; their conditions may differ. Like-named read-outs stand apart in the source and are kept apart here.

Legend:
[1] = tested on: thioredoxin activity in human microvascular endothelial cells; assay: Thioredoxin bioassay (colorimetric, DTNB) on HMVEC protein extracts; format: cell-based; conditions: for thioredoxin activity after siRNA transfection: in the absence of the stimuli, vs vehicle control, FIG. 6A
Experimental: Thioredoxin Bioassay. Thioredoxin was assayed based upon previously published colorimetric protocols. Wang et al. (2002) J. Biol Chem. 277:26496-26500. The level of thioredoxin activity is assessed at […] via the […] of a colorimetric substrate DTNB (5,5′-dithiobis(2-nitrobenzoic acid)). Protein extracts were obtained by subjecting cells to a lysis buffer (20 mM HEPES (pH 7.9), 300 mM NaCl, 100 mM KCl, 10 mM EDTA, 0.1% Nonidet P-40, PMSF protease inhibitors).
Double-stranded siRNA were transfected into cells (Lipofectamine2000 reagent, Invitrogen). 24 hours after transfection, HMVEC migration experiments were performed, in the presence of vehicle or stimuli. Cell migration and thioredoxin activity were assayed as described above.

[2] = tested on: human microvascular endothelial cell (HMVEC) migration; assay: Cell migration assay (wounding) on HMVEC; format: cell-based; conditions: for effect of siRNA on growth factor induced endothelial cell migration: 96 hours after transfection, FIG. 7; for HMVEC migration after siRNA transfection: in the absence of added growth factors, vs vehicle control, FIG. 6B
HMVECs = assay: cDNA microarray analysis of HMVECs; format: cell-based, human
Experimental: Microarray Analyses. HMVECs were grown to 50-70% confluency. Subconfluent rather than confluent HMVEC cultures were studied because they more closely resemble conditions associated with cell migration in vivo, and because this condition is associated with increased EC expression of α7-nAChRs. Heeschen et al. (2002) J. Clin. Invest. 110:527-536. The concentration of the FBS in the media was then reduced to 1% so as to render the endothelial cells quiescent. After 24 hours, nicotine (10^−8M), VEGF (10 ng/ml) or bFGF (10 ng/ml) was added. Total RNA was then harvested at 24 hours. Five separate experiments per condition were processed for cDNA microarray analysis. Fluorescently labeled cDNAs (stimulated HMVECs versus vehicle-treated HMVECs at 24 hours post incubation) were hybridized on cDNA microarrays containing 39711 nonredundant cDNA clones, representing 26,260 unique UniGene clusters (SFGF, Stanford, Calif.). Eisen et al. (1998) Proc Natl Acad Sci USA 95:14863-14868. Scanning of processed microarray slides was performed using a GenePix400A scanner and images analysed with GENEPIX PRO software (Axon Instruments, Foster City, Calif.). Microarray data were stored in the Stanford Microarray Database (Stanford, Calif.). Spots with signal less than 2.5-fold above background were removed in both channels and/or a regression correlation of less than 0.6. Genes with less than 80% evaluable data were excluded and the remaining data was then normalized. The significance of microarrays (SAM) algorithm was used with a one-class design to identify genes differentially expressed by treatment with each stimuli at each timepoint. Tusher et al. (2001) Proc Natl Acad Sci USA. 98:5116-5121. Delta values giving approximately 5% false discovery were chosen. To analyze convergent gene expression profiles, all differentially expressed genes at 24 hours were hierarchically clustered by gene and by array (Cluster software, version 2.11), and the results analysed with Treeview software (version 1.6). Eisen et al. (1998) supra.

[3] = tested on: human microvascular endothelial cell (HMVECs)
Excerpt: To further investigate the effects of nAChR-dependent pathways on EC migration, the effect of the nAChR antagonist, hexamethonium, on EC migration induced by nicotine, VEGF and bFGF was studied.

[4] = HMVEC, vs vehicle, nicotine 10^−8M, VEGF 10 ng/ml, bFGF 10 ng/ml, hexamethonium 10^−4M, FIG. 4, 5A
[5] = vs vehicle, nicotine 10^−8M to 10^−4M, VEGF or bFGF 1-10 ng/ml, FIG. 1, 2A, 5B
[6] = HMVEC, 24 h, effect stronger for bFGF than for nicotine or VEGF, FIG. 3B Panel D

Compound: CN1CCC[C@H]1c1cccnc1 [nicotine, S-3-(1-methyl-2-pyrrolidinyl)pyridine, reference compound]
- thioredoxin activity, agent alone [1, 4]: induced HMVEC thioredoxin activity significantly above vehicle; also recorded: increased
- thioredoxin activity, agent alone ([1]; HMVEC, vs vehicle, nicotine 10^−8M, VEGF 10 ng/ml, bFGF 10 ng/ml, hexamethonium 10^−4M, FIG. 4, 5A, listed as Nicotine): increased
- concentration of maximal stimulation of EC migration ([2]; HMVEC, dose range 10^−8M to 10^−4M, FIG. 2A): 10^−8 M
- EC (HMVEC) migration, stimulus alone [2, 5]: greater migratory activity; also recorded: induced human microvascular endothelial cell (HMVEC) migration in a dose-dependent fashion
- EC (HMVEC) migration, stimulus alone ([2]; vs vehicle, nicotine 10^−8M to 10^−4M, VEGF or bFGF 1-10 ng/ml, FIG. 1, 2A, 5B, listed as Nicotine): stimulated EC migration in a dose-dependent manner
- expression of the VEGF receptor FLT1 (HMVECs; [6]): induced activation

Compound: siRNA directed against ARHGEF: Double-stranded siRNA to ARHGEF7: sense GCCUGUGUCUCCCAAAUCAtt (SEQ ID NO: 5), antisense UGAUUUGGGAGACACAGGCtt (SEQ ID NO: 6) (sense GCCUGUGUCUCCCAAAUCATT; antisense UGAUUUGGGAGACACAGGCTT; lower-case overhang letters stated to be dideoxynucleotides, upper case undefined, further chemistry not given here)
- effect of siRNA on growth factor induced endothelial cell migration ([2]; HMVEC): inhibited

Compound: α-bungarotoxin
- effect on nicotine-induced EC migration [2]: abolished

Compound: CNC1(C)C2CCC(C2)C1(C)C (stereo not shown) [mecamylamine]
- cell death (cellular toxicity) [3]: did not induce cell death

Compound: VEGF
- thioredoxin activity, agent alone [1]: induced HMVEC thioredoxin activity significantly above vehicle; also recorded: increased
- EC (HMVEC) migration, stimulus alone [2]: induced EC migration
- concentration of maximal effects on EC migration [2]: 10 ng/mL
- Fold Change CHRM5 (Cholinergic muscarinic receptor 5) (HMVECs): 2.0
- Fold Change CHRNA3 (Nicotinic receptor alpha polypeptide 3) (HMVECs): 1.7
- Fold Change CHRNA10 (Nicotinic receptor alpha polypeptide 10) (HMVECs): 2.0
- Fold Change CHRNB2 (Nicotinic receptor beta polypeptide 2) (HMVECs): 6.9
- Fold Change CHRNB3 (Nicotinic receptor beta polypeptide 3) (HMVECs): 2.2
- expression of the VEGF receptor FLT1 (HMVECs): induced activation

Compound: scrambled siRNA: Scrambled (randomly arranged) RNAi GUUGGCCAUUCUACUUCGCTTdtt (SEQ ID NO:17) used as negative control (GUUGGCCAUUCUACUUCGCTTDTT; dTdT overhang, further chemistry not given here)
- thioredoxin activity after siRNA transfection ([1]; HMVEC): no effect
- effect of siRNA on growth factor induced endothelial cell migration ([2]; HMVEC): no effect
- HMVEC migration after siRNA transfection [2]: no effect

Compound: siRNA against TXNIP: Double-stranded siRNA to TXNIP: sense ACAGACUUCGGAGUACCUGtt (SEQ ID NO: 14), antisense CAGGUACUCCGAAGUCUGUtt (SEQ ID NO: 15) (sense ACAGACUUCGGAGUACCUGTT; antisense CAGGUACUCCGAAGUCUGUTT; lower-case overhang letters stated to be dideoxynucleotides, upper case undefined, further chemistry not given here)
- thioredoxin activity after siRNA transfection ([1]; HMVEC): significantly stimulated; also recorded: significantly increased
- HMVEC migration after siRNA transfection [2]: strongly stimulated; also recorded: significantly increased

Compound: siRNA directed against P4HA: Double-stranded siRNA to P4HA1: sense GGAUUUGUUGGGCAUCCAGtt (SEQ ID NO: 11), antisense CUGGAUGCCCAACAAAUCCtt (SEQ ID NO: 12) (sense GGAUUUGUUGGGCAUCCAGTT; antisense CUGGAUGCCCAACAAAUCCTT; lower-case overhang letters stated to be dideoxynucleotides, upper case undefined, further chemistry not given here)
- effect of siRNA on growth factor induced endothelial cell migration ([2]; HMVEC): inhibited

Compound: bFGF: human bFGF purchased from R&D Systems; angiogenic growth factor
- thioredoxin activity, agent alone [1, 4]: less robust (P=0.02 vs. vehicle) but significant increase; also recorded: increased
- concentration of maximal effects on EC migration ([2]; HMVEC, range 1-10 ng/ml): 10 ng/mL
- EC (HMVEC) migration, stimulus alone [2, 5]: induced EC migration
- expression of the VEGF receptor FLT1 (HMVECs; [6]): induced activation

Compound: C[N+](C)(C)CCCCCC[N+](C)(C)C [hexamethonium, hexamethonium bromide]
- effect on nicotine-, VEGF- or bFGF-induced thioredoxin activity [1]: inhibited
- thioredoxin activity, agent alone [1]: no significant effect
- cell death (cellular toxicity) ([3]; antagonist alone, MTT assay): did not induce cell death
- effect on growth factor (VEGF or bFGF)-induced EC migration [2]: significantly attenuated
- effect on nicotine-induced EC migration [2]: abrogated; also recorded: abolished

Compound: siRNA directed against Rin2: Double-stranded siRNA to Rin2: sense CUGAAACAGGAGAUGGUGCtt (SEQ ID NO: 8), antisense GCACCAUCUCCUGUUUCAGtt (SEQ ID NO: 9) (sense CUGAAACAGGAGAUGGUGCTT; antisense GCACCAUCUCCUGUUUCAGTT; lower-case overhang letters stated to be dideoxynucleotides, upper case undefined, further chemistry not given here)
- effect of siRNA on growth factor induced endothelial cell migration ([2]; HMVEC): inhibited
